Article PMC10824666 (Nature Cancer, 2023)
Read-outs that look alike come from different tables or passages of the source. One block for each molecule: values may come before it.

Biological target: T1, EPHB3 (Homo sapiens, UniProt P54753)
T1 sequence (P54753 1-998): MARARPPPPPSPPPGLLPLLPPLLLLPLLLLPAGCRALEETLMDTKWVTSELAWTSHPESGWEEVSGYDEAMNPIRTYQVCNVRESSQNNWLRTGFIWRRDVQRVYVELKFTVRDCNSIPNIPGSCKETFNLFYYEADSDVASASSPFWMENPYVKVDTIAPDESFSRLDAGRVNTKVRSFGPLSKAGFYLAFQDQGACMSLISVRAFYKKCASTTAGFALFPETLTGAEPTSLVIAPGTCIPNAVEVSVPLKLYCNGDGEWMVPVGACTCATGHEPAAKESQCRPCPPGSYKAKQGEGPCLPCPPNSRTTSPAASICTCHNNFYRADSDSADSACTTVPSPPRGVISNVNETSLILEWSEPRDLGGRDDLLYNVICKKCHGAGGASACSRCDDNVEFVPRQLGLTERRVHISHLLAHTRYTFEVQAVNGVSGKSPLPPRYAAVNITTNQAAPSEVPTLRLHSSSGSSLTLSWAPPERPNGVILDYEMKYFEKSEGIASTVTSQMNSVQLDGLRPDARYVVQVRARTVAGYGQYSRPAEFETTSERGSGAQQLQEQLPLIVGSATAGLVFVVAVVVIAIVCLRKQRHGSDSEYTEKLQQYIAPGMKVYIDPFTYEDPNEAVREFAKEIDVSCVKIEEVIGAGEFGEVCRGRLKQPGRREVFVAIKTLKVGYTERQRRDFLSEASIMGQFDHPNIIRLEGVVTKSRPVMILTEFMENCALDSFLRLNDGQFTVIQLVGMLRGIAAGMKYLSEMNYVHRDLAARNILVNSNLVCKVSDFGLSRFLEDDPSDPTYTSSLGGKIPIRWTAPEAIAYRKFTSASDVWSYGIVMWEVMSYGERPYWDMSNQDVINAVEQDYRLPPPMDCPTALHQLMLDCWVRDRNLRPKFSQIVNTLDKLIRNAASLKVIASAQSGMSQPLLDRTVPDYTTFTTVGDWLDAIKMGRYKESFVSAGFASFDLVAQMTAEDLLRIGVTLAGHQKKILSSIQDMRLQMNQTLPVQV
Assay: biochemical
Set-up: Eurofins DiscoverX kinase panel, competitive binding assay at 1 uM, percent of DMSO control
Details: competitive binding, percent of DMSO control
Outline: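 Competitive binding assay across a 96-kinase panel with KIF18A compounds at 1 µM; values given as percentage of control (POC), single experiment.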

- remaining activity at 1 µM (read-out: Kinome Profiling performed by Eurofins DiscoverX / AM-1882, 1.0 µM / POC): 98%
SMILES: CC(C)(C)NS(=O)(=O)c1cccc(NC(=O)c2ccc(S(=O)(=O)NC(C)(C)C)cc2N2CCC3(CC2)CC3)c1 [AM-1882]

- remaining activity at 1 µM (read-out: Kinome Profiling performed by Eurofins DiscoverX / AM-5308, 1.0 µM / POC): 44%
SMILES: C[C@@H]1CN(c2cccc(NC(=O)c3ccc(NS(=O)(=O)CCO)cc3N3CCC4(CC3)CC4)n2)CCO1 [AM-5308]

- remaining activity at 1 µM (read-out: Kinome Profiling performed by Eurofins DiscoverX / AM-0277, 1.0 µM / POC): 87%
SMILES: CC(C)(CO)Nc1ccc(C(=O)Nc2cccc(S(=O)(=O)C3CCCC3)c2)c(N2CCC3(CC2)CC3)n1 [AM-0277]
